Assays:
algae cells [1] = assay: Loading of algae with astaxanthin, microscopic examination; design: species or system Cyclotella meneghiniana; settings: over 24 hours
Method: A rehydration composition was prepared by adding 1 g of synthetic astaxanthin to 200 ml of fresh, potable water, then microwaving 3 times for 1 min each time.
The algae were then rehydrated by blending the astaxanthin solution (suspension) together with 1 litre of potable water and 200 mg of the algae powder for 2 minutes.
Astaxanthin particles were able to penetrate inside algae cells and were also absorbed by the porous surface of the siliceous exoskeleton (frustule).

algae cells [2] = assay: Loading of freeze-dried algae with vitamin C by rehydration; vitamin C in algal cells by HPLC-DAD; design: species or system Cyclotella meneghiniana; settings: rehydration in 5 g/L vitamin C; incubation at 28° C.
Method: A rehydration composition was prepared by dissolving 500 mg per litre vitamin C in filtered natural (North Sea) seawater (20° C.). A second rehydration composition was prepared by dissolving 5 g per litre vitamin C in the seawater. As a control, a third rehydration composition consisted of just the clean seawater without any vitamin C added.
The algae were then rehydrated by adding one of the rehydration compositions to a standard kitchen blender (Kenwood KM230, 650 W, with blender attachment). The blender was switched on at a moderate mixing speed (speed 4) to agitate the rehydration composition. Then 10 g per litre of freeze-dried algae was added to the rehydration composition while mixing, and the freeze-dried algae was allowed to blend into the rehydration composition for 2 minutes. Cell integrity after rehydration was verified using a microscope.
Each of the three rehydration compositions comprising rehydrated algae were split into six replicates. Three replicates of each composition were harvested immediately after rehydration. The remaining three replicates of the treatment groups were incubated in a water bath at 28° C. and provided with moderate aeration. […]
The concentration of vitamin C in the algal cells of the treatment groups and control at the different time points were then analysed by high-performance liquid chromatography with Diode-Array Detection.

SMILES | stability of association of astaxanthin particles within algae cells (algae cells [1]) | time for which the vitamin C level in the algae cells was maintained (algae cells [2])
CC1=C(/C=C/C(C)=C/C=C/C(C)=C/C=C/C=C(C)/C=C/C=C(C)/C=C/C2=C(C)C(=O)[C@@H](O)CC2(C)C)C(C)(C)C[C@H](O)C1=O [astaxanthin] | remained stable | 
O=C1O[C@H]([C@@H](O)CO)C(O)=C1O [vitamin C] |  | ≥ 6 h

— patent publication US20210196816A1, “ALGAE COMPRISING THERAPEUTIC AND/OR NUTRITIONAL AGENTS” (TomAlgae CVBA, priority 2016, published 2021)
